Measured values reported in the supplement of paper PMC12317010.
Counter-ions that a name gives are not always drawn.

Assay: collision cross section in nitrogen (drift tube, single-field); higher = larger gas-phase ion size
[1] = ion type: [M+H], ion source: ESI, ion mode: Positive
[2] = ion type: [M+Na], ion source: ESI, ion mode: Positive
[3] = ion type: [M-H], ion source: ESI, ion mode: Negative
[4] = ion type: [M+H], ion source: APCI, ion mode: Positive
[5] = ion type: [M+], ion source: APCI, ion mode: Positive
[6] = ion source: APCI, ion mode: Positive, ion type: [M]+ (permanent cation)
[7] = ion source: ESI, ion mode: Positive, ion type: [M]+ (permanent cation)
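Further: chemical standards at 10 µM analysed by drift tube IMS-QTOF MS in about 3.95 torr nitrogen, mean of duplicate injections differing ≤1%, mass error below 10 ppm.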

Row | Compound | collision cross section in nitrogen [1] [Å²] | collision cross section in nitrogen [2] [Å²] | collision cross section in nitrogen [3] [Å²] | further results
1 | OCC(CO)(CO)COCC(CO)(CO)CO [Dipentaerythritol] | 154.2 | 157.9 | 154.6 | 
2 | CCCCCCCCCCCCc1ccccc1O [n-Dodecylphenol] |  |  | 173.8 | 
3 | COc1ccc(Cl)cc1C(=O)NCCc1ccc(S(=O)(=O)NC(=O)NC2CCCCC2)cc1 [Glybenclamide] | 206.6 | 217.6 | 213.2 | 
4 | Oc1cccnc1 [3-Pyridinol] | 117.3 |  | 114.6 | 
5 | C=C(C)[C@H]1Cc2c(ccc3c2O[C@@H]2COc4cc(OC)c(OC)cc4[C@@H]2C3=O)O1 [Rotenone] | 194.8 | 207.3 | 199 | 
6 | CCCN(CCC)c1c([N+](=O)[O-])cc(C(F)(F)F)c(N)c1[N+](=O)[O-] [Prodiamine] |  |  | 171.1 | 
7 | OCCNCc1ccccc1 [N-Benzylethanolamine] | 134.9 |  |  | 
8 | Cc1cc(Br)ccc1NC(=O)CCl [2-Chloro-N-(2-methyl-4-bromophenyl)acetamide] |  |  | 146 | 
9 | CCCOc1nn(C(=O)NS(=O)(=O)c2ccccc2C(=O)OC)c(=O)n1C [Propoxycarbazone-sodium] |  |  | 193.2 | 
10 | CC1=CP(=O)(c2ccccc2)CC1 (stereo unspecified) [2,3-Dihydro-4-methyl-1-phenyl-1H-phosphole 1-oxide] | 141.3 | 160.6 |  | collision cross section in nitrogen [4]: 141.7 Å²; collision cross section in nitrogen [5]: 138 Å²
11 | Cc1ccc(-c2nc3ccccc3o2)cc1 [2-(4-Methylphenyl)-1,3-benzoxazole] | 145.5 |  |  | collision cross section in nitrogen [4]: 145.3 Å²
12 | CCCCC(CC)COC(=O)C=Cc1ccc(OC)cc1 (stereo unspecified) [Octinoxate] |  | 184.1 |  | 
13 | CCOC(=O)CCCCCCCCC(=O)OCC [Diethyl decanedioate] |  | 171.5 |  | 
14 | COc1ccc(C(=O)Nc2nc3ccccc3c(NCc3ccccc3)c2C#N)cc1 | 206.7 | 206.2 | 210.8 | collision cross section in nitrogen [4]: 207 Å²
15 | CN[C@H]1CC[C@@H](c2ccc(Cl)c(Cl)c2)c2ccc(S(N)(=O)=O)cc21 |  |  | 197.2 | 
16 | N#C/N=C1\SCCN1Cc1ccc(Cl)nc1 [Thiacloprid] | 159.6 | 174.2 | 154.5 | 
17 | CC(=O)Nc1c(I)c(NC(C)=O)c(I)c(C(=O)O)c1I [Diatrizoate sodium] | 175.5 | 179.4 |  | 
18 | CCOC(=O)[C@@H](C)Oc1ccc(Oc2nc3ccc(Cl)cc3o2)cc1 [Fenoxaprop-P-ethyl] | 189.5 | 189 |  | collision cross section in nitrogen [4]: 189.9 Å²
19 | CCNc1cc2[o+]c3cc(NCC)c(C)cc3c(-c3ccccc3C(=O)OCC)c2cc1C [Rhodamine 6G] |  |  |  | collision cross section in nitrogen [6]: 218.3 Å²; collision cross section in nitrogen [7]: 218.9 Å²
20 | O=S(=O)(O)c1cc(Nc2nc(Nc3ccccc3)nc(N(CCO)CCO)n2)ccc1C=Cc1ccc(Nc2nc(Nc3ccccc3)nc(N(CCO)CCO)n2)cc1S(=O)(=O)O [C.I. Fluorescent Brightener 28, disodium salt] | 307.5 |  | 282.8 | 
21 | CC(C)c1cccc(C(C)C)c1N [2,6-Diisopropylaniline] |  |  |  | collision cross section in nitrogen [4]: 146.6 Å²

Row | Compound | collision cross section in nitrogen [1] [Å²] | collision cross section in nitrogen [2] [Å²] | collision cross section in nitrogen [3] [Å²] | further results
22 | O=c1cc(-c2ccccc2)oc2ccccc12 [Flavone] | 146.5 |  |  | collision cross section in nitrogen [4]: 146.6 Å²
23 | CC[C@H](c1ccc(O)cc1)[C@@H](CC)c1ccc(O)cc1 [Hexestrol] |  |  | 177.2 | 
24 | C1CC(COCC2CO2)CCC1COCC1CO1 (stereo unspecified) |  | 160.1 |  | 
25 | CCCCCCCCCCCCCCCC(=O)OCC [Ethyl hexadecanoate] |  |  | 177.9 | 
26 | CC(C)NCC(O)COc1cccc2ccccc12 (stereo unspecified) [Propranolol hydrochloride] | 162.8 | 167.7 |  | collision cross section in nitrogen [4]: 162.5 Å²
27 | CCCCC(CC)COC(=O)c1ccc(N(C)C)cc1 (stereo unspecified) [4-(Dimethylamino)benzoic acid 2-ethylhexyl ester] | 185.2 |  |  | collision cross section in nitrogen [4]: 185.9 Å²
28 | CC#Cc1cc(C)nc(Nc2ccccc2)n1 [Mepanipyrim] | 153.1 |  | 160.6 | collision cross section in nitrogen [4]: 152.6 Å²; collision cross section in nitrogen [5]: 147.3 Å²
29 | Cc1cc(C)nc(Nc2ccccc2)n1 [Pyrimethanil] | 143.8 |  |  | collision cross section in nitrogen [4]: 143.4 Å²
30 | O=C(NC(=O)c1c(F)cccc1F)Nc1ccc(Cl)cc1 [Diflubenzuron] |  | 177.4 | 169.5 | 
31 | Cc1ccc(-c2ccccc2)cc1 [4-Phenyltoluene] |  | 135.4 |  | 
32 | CCCCOCCOC(=O)COc1nc(Cl)c(Cl)cc1Cl [Triclopyr 2-butoxyethyl ester] |  | 176.3 |  | 
33 | CCC(CC)C(=O)O [2-Ethylbutyric acid] |  |  | 127.6 | 
34 | CCCCCCCCCC[N+](C)(C)CCCCCCCCCC [Didecyldimethylammonium chloride] |  |  |  | collision cross section in nitrogen [6]: 208.2 Å²; collision cross section in nitrogen [7]: 209.1 Å²
35 | CCNc1nc(Cl)nc(NC(C)(C)C#N)n1 [Cyanazine] | 155.4 |  |  | collision cross section in nitrogen [4]: 155.6 Å²
36 | Cc1ccc(C)c(S(=O)(=O)O)c1 [2,5-Dimethylbenzenesulfonic acid] |  |  | 138.2 | 
37 | O=S(=O)(O)C(F)(F)C(F)(F)C(F)(F)C(F)(F)F [Perfluorobutanesulfonic acid] |  |  | 133.8 | 
38 | CN1C(=O)N(c2ccccc2Br)Cc2cnc(Nc3ccc4c(c3)OCC(CO)O4)nc21 (stereo unspecified) | 218.9 | 219.1 | 220.2 | collision cross section in nitrogen [4]: 219.5 Å²; collision cross section in nitrogen [5]: 215.4 Å²
39 | CC(O)CN(CCN(CC(C)O)CC(C)O)CC(C)O (stereo unspecified) [1,1′,1′′,1′′′-(Ethylenedinitrilo)tetrakis(2-propanol)] | 166.8 | 168.6 | 168.6 | collision cross section in nitrogen [4]: 166.8 Å²
40 | CCN(CCO)CCO [Ethyl diethanolamine] | 125.8 |  |  | collision cross section in nitrogen [4]: 125.6 Å²
41 | CC(C)(C)c1n[nH]c(=O)n(N)c1=O [Diketometribuzin] |  |  | 139.3 | 
42 | CCOc1ccc(N=Nc2ccc(C=Cc3ccc(N=Nc4ccc(OCC)cc4)cc3S(=O)(=O)O)c(S(=O)(=O)O)c2)cc1 [C.I. Direct Yellow 12] | 278.7 | 286.9 | 279.3 | 

Row | Compound | collision cross section in nitrogen [1] [Å²] | collision cross section in nitrogen [2] [Å²] | collision cross section in nitrogen [3] [Å²] | further results
43 | CC(C)(C)C(O)/C(=C\c1ccc(Cl)cc1Cl)n1cncn1 (stereo unspecified) [Diniconazole] | 177.1 |  |  | collision cross section in nitrogen [4]: 177.9 Å²
44 | N#Cc1ccc(C(=O)O)cc1 [4-Cyanobenzoic acid] |  |  | 142.1 | 
45 | CCCCCCCCCCCSCC(=O)O [3-Thiatetradecanoic acid] |  |  | 162.7 | 
46 | O=C1OC2(c3ccccc31)c1cc(Br)c(O)c(Br)c1Oc1c2cc(Br)c(O)c1Br [Eosin] |  |  | 207.8 | 
47 | Cn1c(=O)[nH]c2ncn(C)c2c1=O [1,7-Dimethylxanthine] |  |  | 136.8 | collision cross section in nitrogen [4]: 134.2 Å²
48 | Cc1c(C2(c3cc(Br)c(O)c(Br)c3C)OS(=O)(=O)c3ccccc32)cc(Br)c(O)c1Br [Bromcresol green] |  |  | 217 | 
49 | CCCCCCOCCOCCO [2-[2-(Hexyloxy)ethoxy]ethanol] |  | 151.8 |  | 
50 | COC(=O)Nc1ccc(Cl)c(Cl)c1 [Swep] |  |  | 140.9 | 
51 | O=C(CC(=O)c1ccccc1)c1ccccc1 [1,3-Diphenyl-1,3-propanedione] |  | 165.9 | 154.4 | 
52 | CN(C)c1ccccc1 [N,N-Dimethylaniline] |  | 123.8 |  | 
53 | CCCCCCCCC=CCCCCCCCC(=O)OCCO [Poly(oxyethylene) monoleate] |  |  | 186.1 | 
54 | CC(=O)NCCCS(=O)(=O)O [1-Propanesulfonic acid, 3-(acetylamino)-, calcium salt (2:1)] |  |  | 134.9 | 
55 | c1ccc(C[n+]2cccc3ccccc32)cc1 [1-Benzylquinolinium chloride] |  |  |  | collision cross section in nitrogen [6]: 147.6 Å²; collision cross section in nitrogen [7]: 148 Å²
56 | O=C(O)C(F)(F)C(F)(F)C(F)(F)C(F)(F)C(F)(F)C(F)(F)C(F)(F)C(F)(F)C(F)(F)F [Perfluorodecanoic acid] |  |  | 175.1 | 
57 | CN(C)c1ccc(C(c2ccccc2)c2ccc(N(C)C)cc2)cc1 [Leucomalachite green] | 198.9 |  |  | collision cross section in nitrogen [4]: 199.9 Å²
58 | Cc1ccc(N/N=c2\c(=O)cc/c(=N/Nc3ccc(S(=O)(=O)O)cc3)c2=O)c(C)c1 [C.I. Acid Orange 24, monosodium salt] |  |  | 221 | 
59 | Cc1cc(O)c(C(C)C)cc1Cl [6-Chlorothymol] |  |  | 140.5 | 
60 | CCCCC(CC)COC(=O)c1c(Br)c(Br)c(Br)c(Br)c1C(=O)OCC(CC)CCCC (stereo unspecified) [Bis(2-ethylhexyl) tetrabromophthalate] |  | 240.6 |  | 
61 | CC1(C)CCC(C)(C)c2cc(C(=O)Nc3ccc(C(=O)O)cc3)ccc21 | 198.2 |  | 198 | 
62 | CC(C)CCCC(=O)O [5-Methylhexanoic acid] |  |  | 136.9 | 
63 | CCCCOCCOCCOCc1cc2c(cc1CCC)OCO2 [Piperonyl butoxide] |  | 179.9 |  | 
